In patent US10167262B2, “Herbicidal substituted 3-arylpyrazoles” (FMC CORPORATION, priority 2014, dated 2019):
Read-outs that look alike come from different tables or passages of the source.

Assays:
Format in all cases: in vivo
[1] = test system: morningglory (Ipomoea spp.); assay: Test A pre-/postemergence greenhouse herbicide test, visual injury rating 0-100; settings: Ipomoea, 240 h, 1000 g ai/ha, read-out: Plant response rating (0 to 100 scale), Morningglory
Outline: (§1)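 Each species was treated both before emergence, via soil spray onto a loam–sand blend, and after emergence at the one- to two-leaf stage. Plants stayed in the greenhouse around 10 days before visual injury assessment.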

[2] = test system: large (Lg) crabgrass (Digitaria sanguinalis); assay: as above; settings: Digitaria sanguinalis, 240 h, 1000 g ai/ha, read-out: Plant response rating (0 to 100 scale), Crabgrass, Large
Outline: as §1

[3] = test system: velvetleaf (Abutilon theophrasti); assay: as above; settings: Abutilon theophrasti, 240 h, 1000 g ai/ha, read-out: Plant response rating (0 to 100 scale), Velvetleaf
Outline: as §1

corn (Zea mays) = assay: as above; settings: Zea mays, 240 h, 1000 g ai/ha, read-out: Plant response rating (0 to 100 scale), Corn
Outline: as §1

[4] = test system: wheat (Triticum aestivum); assay: as above; settings: Triticum aestivum, 240 h, 1000 g ai/ha, read-out: Plant response rating (0 to 100 scale), Wheat
Outline: as §1

[5] = test system: giant foxtail (Setaria faberii); assay: as above; settings: Setaria faberi, 240 h, 1000 g ai/ha, read-out: Plant response rating (0 to 100 scale), Foxtail, Giant
Outline: as §1

[6] = test system: barnyardgrass (Echinochloa crus-galli); assay: as above; settings: Echinochloa crus-galli, 240 h, 1000 g ai/ha, read-out: Plant response rating (0 to 100 scale), Barnyardgrass
Outline: as §1

[7] = test system: pigweed (Amaranthus retroflexus); assay: as above; settings: Amaranthus retroflexus, 240 h, 1000 g ai/ha, read-out: Plant response rating (0 to 100 scale), Pigweed
Outline: as §1

[8] = test system: blackgrass (Alopecurus myosuroides); assay: Test C pre-/postemergence greenhouse test, plant response rating 0-100; settings: Alopecurus myosuroides; for pest or weed control at 31 g/ha: 31 g ai/ha; for pest or weed control at 62 g/ha: 62 g ai/ha; for pest or weed control at 125 g/ha: 125 g ai/ha; for pest or weed control at 250 g/ha: 250 g ai/ha;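 for all read-outs here: 0 is no effect and 100 is complete control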
Outline: (§2)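 Plants were treated either at seeding (soil of loam and sand) or as 2–18 cm seedlings in a sphagnum peat mix, using test chemicals in a surfactant-containing non-phytotoxic solvent. Visual assessment relative to controls followed 13–15 days later.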

[9] = test system: morningglory (Ipomoea coccinea); assay: as above; settings: Ipomoea; for pest or weed control at 62 g/ha: 62 g ai/ha; for pest or weed control at 125 g/ha: 125 g ai/ha; for pest or weed control at 250 g/ha: 250 g ai/ha
Outline: as §2

[10] = test system: large (Lg) crabgrass (Digitaria sanguinalis); assay: as above; settings: Digitaria sanguinalis; for pest or weed control at 31 g/ha: 31 g ai/ha; for pest or weed control at 62 g/ha: 62 g ai/ha; for pest or weed control at 125 g/ha: 125 g ai/ha; for pest or weed control at 250 g/ha: 250 g ai/ha
Outline: as §2

[11] = test system: ragweed (common ragweed, Ambrosia elatior); assay: as above; settings: Ambrosia artemisiifolia; for pest or weed control at 62 g/ha: 62 g ai/ha; for pest or weed control at 125 g/ha: 125 g ai/ha; for pest or weed control at 250 g/ha: 250 g ai/ha;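 for all read-outs here: 0 is no effect and 100 is complete control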
Outline: as §2

[12] = test system: velvetleaf (Abutilon theophrasti); assay: as above; settings: Abutilon theophrasti; for pest or weed control at 62 g/ha: 62 g ai/ha; for pest or weed control at 125 g/ha: 125 g ai/ha; for pest or weed control at 250 g/ha: 250 g ai/ha
Outline: as §2

[13] = post-emergence, Postemergence, read-out: Plant response rating (0 to 100), Blackgrass
[14] = post-emergence, Postemergence, scale 0 to 100
[15] = pre-emergence, Preemergence, read-out: Plant response rating, Blackgrass
[16] = pre-emergence, Preemergence, 500 g ai/ha
[17] = post-emergence, Postemergence, read-out: Plant response rating (0 to 100), Morningglory
[18] = pre-emergence, Preemergence, read-out: Plant response rating, Morningglory
[19] = post-emergence, Postemergence, read-out: Plant response rating (0 to 100), Crabgrass, Large
[20] = pre-emergence, Preemergence, read-out: Plant response rating, Crabgrass, Large
[21] = post-emergence, Postemergence, read-out: Plant response rating (0 to 100), Ragweed
[22] = post-emergence, Postemergence, read-out: Plant response rating (0 to 100), Velvetleaf
[23] = pre-emergence, Preemergence, read-out: Plant response rating, Velvetleaf
[24] = post-emergence, Postemergence, 16 g ai/ha

## Clc1cc(Cl)cc(-c2n[nH]cc2C(=NN2CCCC2)c2ccccc2)c1 [Compound 30, N-[[3-(3,5-dichlorophenyl)-1H-pyrazol-4-yl]phenylmethylene]-1-pyrrolidinamine]
[1]; post-emergence, Postemergence
  pest or weed control at 1000 g/ha: 0%
[1]; pre-emergence, Preemergence
  pest or weed control at 1000 g/ha: 0%
[2]; post-emergence, Postemergence
  pest or weed control at 1000 g/ha: 0%
[2]; pre-emergence, Preemergence
  pest or weed control at 1000 g/ha: 0%
[3]; post-emergence, Postemergence
  pest or weed control at 1000 g/ha: 100%
[3]; pre-emergence, Preemergence
  pest or weed control at 1000 g/ha: 0%
Corn (Zea mays); post-emergence, Postemergence
  plant injury at 1000 g/ha: 0%
Corn (Zea mays); pre-emergence, Preemergence
  plant injury at 1000 g/ha: 0%
[4]; post-emergence, Postemergence
  plant injury at 1000 g/ha: 0%
[4]; pre-emergence, Preemergence
  plant injury at 1000 g/ha: 0%
[5]; post-emergence, Postemergence
  pest or weed control at 1000 g/ha: 0%
[5]; pre-emergence, Preemergence
  pest or weed control at 1000 g/ha: 0%
[6]; post-emergence, Postemergence
  pest or weed control at 1000 g/ha: 0%
[6]; pre-emergence, Preemergence
  pest or weed control at 1000 g/ha: 0%
[7]; post-emergence, Postemergence
  pest or weed control at 1000 g/ha: 100%
[7]; pre-emergence, Preemergence
  pest or weed control at 1000 g/ha: 90%
[8]; [13]
  pest or weed control at 31 g/ha: 0%
  pest or weed control at 62 g/ha: 0%
[8]; post-emergence, Postemergence, scale 0 to 100, read-out: Plant response rating, Blackgrass
  pest or weed control at 125 g/ha: 0%
[8]; [14]
  pest or weed control at 250 g/ha: 0%
[8]; [15]
  pest or weed control at 62 g/ha: 0%
  pest or weed control at 125 g/ha: 0%
[8]; pre-emergence, Preemergence
  pest or weed control at 250 g/ha: 0%
[8]; [16]
  pest or weed control at 500 g/ha: 0%
[9]; [17]
  pest or weed control at 62 g/ha: 0%
  pest or weed control at 125 g/ha: 0%
[9]; [14]
  pest or weed control at 250 g/ha: 0%
[9]; [18]
  pest or weed control at 62 g/ha: 10%
  pest or weed control at 125 g/ha: 15%
[9]; pre-emergence, Preemergence
  pest or weed control at 250 g/ha: 15%
[9]; [16]
  pest or weed control at 500 g/ha: 15%
[10]; [19]
  pest or weed control at 31 g/ha: 0%
  pest or weed control at 62 g/ha: 0%
  pest or weed control at 125 g/ha: 0%
[10]; [14]
  pest or weed control at 250 g/ha: 0%
[10]; [20]
  pest or weed control at 62 g/ha: 0%
  pest or weed control at 125 g/ha: 0%
[10]; pre-emergence, Preemergence
  pest or weed control at 250 g/ha: 0%
[10]; [16]
  pest or weed control at 500 g/ha: 0%
[11]; [21]
  pest or weed control at 62 g/ha: 20%
  pest or weed control at 125 g/ha: 35%
[11]; [14]
  pest or weed control at 250 g/ha: 90%
[11]; pre-emergence, Preemergence, read-out: Plant response rating, Ragweed
  pest or weed control at 62 g/ha: 50%
[11]; pre-emergence, Preemergence
  pest or weed control at 250 g/ha: 75%
[11]; [16]
  pest or weed control at 500 g/ha: 100%
[12]; [22]
  pest or weed control at 62 g/ha: 85%
  pest or weed control at 125 g/ha: 85%
[12]; [14]
  pest or weed control at 250 g/ha: 98%
[12]; [23]
  pest or weed control at 62 g/ha: 65%
  pest or weed control at 125 g/ha: 70%
[12]; pre-emergence, Preemergence
  pest or weed control at 250 g/ha: 75%
[12]; [16]
  pest or weed control at 500 g/ha: 100%

## CCn1cc(C(=O)c2ccccc2)c(-c2cc(Cl)cc(Cl)c2)n1 [Compound 31, [3-(3,5-dichlorophenyl)-1-ethyl-1H-pyrazol-4-yl]phenylmethanone]
[1]; post-emergence, Postemergence
  pest or weed control at 1000 g/ha: 0%
[1]; pre-emergence, Preemergence
  pest or weed control at 1000 g/ha: 0%
[2]; post-emergence, Postemergence
  pest or weed control at 1000 g/ha: 0%
[2]; pre-emergence, Preemergence
  pest or weed control at 1000 g/ha: 0%
[3]; post-emergence, Postemergence
  pest or weed control at 1000 g/ha: 90%
[3]; pre-emergence, Preemergence
  pest or weed control at 1000 g/ha: 70%
Corn (Zea mays); post-emergence, Postemergence
  plant injury at 1000 g/ha: 10%
Corn (Zea mays); pre-emergence, Preemergence
  plant injury at 1000 g/ha: 0%
[4]; post-emergence, Postemergence
  plant injury at 1000 g/ha: 0%
[4]; pre-emergence, Preemergence
  plant injury at 1000 g/ha: 0%
[5]; post-emergence, Postemergence
  pest or weed control at 1000 g/ha: 0%
[5]; pre-emergence, Preemergence
  pest or weed control at 1000 g/ha: 0%
[6]; post-emergence, Postemergence
  pest or weed control at 1000 g/ha: 20%
[6]; pre-emergence, Preemergence
  pest or weed control at 1000 g/ha: 0%
[7]; post-emergence, Postemergence
  pest or weed control at 1000 g/ha: 100%
[7]; pre-emergence, Preemergence
  pest or weed control at 1000 g/ha: 100%
[8]; [24]
  pest or weed control at 16 g/ha: 0%
[8]; [13]
  pest or weed control at 31 g/ha: 0%
  pest or weed control at 62 g/ha: 0%
  pest or weed control at 125 g/ha: 0%
[9]; [24]
  pest or weed control at 16 g/ha: 0%
[9]; [17]
  pest or weed control at 62 g/ha: 5%
  pest or weed control at 125 g/ha: 5%
[10]; [24]
  pest or weed control at 16 g/ha: 5%
[10]; [19]
  pest or weed control at 31 g/ha: 5%
  pest or weed control at 62 g/ha: 5%
  pest or weed control at 125 g/ha: 5%
[11]; [24]
  pest or weed control at 16 g/ha: 0%
[11]; [21]
  pest or weed control at 62 g/ha: 0%
  pest or weed control at 125 g/ha: 5%
[12]; [24]
  pest or weed control at 16 g/ha: 50%
[12]; [22]
  pest or weed control at 62 g/ha: 75%
  pest or weed control at 125 g/ha: 80%
